Measured values reported in patent US9957265B2, “N-(2-cyano heterocyclyl) pyrazolo pyridones as janus kinase inhibitors” (Merck Sharp & Dohme Corp., priority 2013, dated 2018).
Like-named read-outs stand apart in the source and are kept apart here.

How the values were obtained:
JAK1 = JAK1 (Homo sapiens (Human), UniProt P23458); test: Jak Biochemical HTRF Assay (JAK1); details: recombinant GST-tagged catalytic domain, [ATP] 31.8 μM, unit not given (compound concentrations tested given in nM)
Description: Jak Biochemical HTRF Assay Protocol
Subsequent reagent additions employed an Agilent Bravo.

JAK2 = JAK2 (Homo sapiens (Human), UniProt O60674); test: Jak Biochemical HTRF Assay (JAK2)
Sequence of JAK2 (O60674 849-1124): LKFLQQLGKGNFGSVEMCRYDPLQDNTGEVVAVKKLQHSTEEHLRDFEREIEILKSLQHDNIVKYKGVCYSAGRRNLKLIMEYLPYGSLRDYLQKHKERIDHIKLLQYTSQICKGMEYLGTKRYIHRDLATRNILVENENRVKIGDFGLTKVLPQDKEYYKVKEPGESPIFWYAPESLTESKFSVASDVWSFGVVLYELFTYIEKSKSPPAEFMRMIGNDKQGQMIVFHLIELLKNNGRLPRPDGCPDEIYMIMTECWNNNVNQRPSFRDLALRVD
Description: The ability of compounds to inhibit the activity of JAK1, JAK2, JAK3, and TYK2 was measured using a recombinant purified GST-tagged catalytic domain for each enzyme (Invitrogen JAK1 #M4290, JAK2 #M4290, JAK3 #M4290, TYK2 #M4290) in an HTRF format biochemical assay. […] Subsequent reagent additions employed an Agilent Bravo. […] After equilibration, 2 μL of 10×ATP in 1× assay buffer was added to initiate the kinase reaction and the plates were shaken and then incubated at room temperature for 120 minutes. […] After normalization to untreated controls, the percent inhibition of the HTRF signal at each compound concentration was calculated. The plot of percent inhibition versus the log of compound concentration was fit with a 4-parameter dose response equation to calculate IC50 values.
Final reaction conditions were:

[1] = read-out: JAK2 IC50, recombinant GST-tagged catalytic domain, [ATP] 8.5 μM, unit not given (compound concentrations tested given in nM)
[2] = JAK2 IC50, recombinant GST-tagged catalytic domain, [ATP] 8.5 μM, unit not given (compound concentrations tested given in nM)

Sequence of JAK1 (P23458 875-1153): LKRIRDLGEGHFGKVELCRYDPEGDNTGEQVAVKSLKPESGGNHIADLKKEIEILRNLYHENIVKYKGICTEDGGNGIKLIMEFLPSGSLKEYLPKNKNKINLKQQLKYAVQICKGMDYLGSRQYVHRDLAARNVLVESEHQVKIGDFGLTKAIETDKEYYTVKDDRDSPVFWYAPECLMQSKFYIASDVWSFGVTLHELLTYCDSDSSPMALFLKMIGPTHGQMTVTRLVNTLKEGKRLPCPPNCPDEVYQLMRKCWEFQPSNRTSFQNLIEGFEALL

Row | SMILES | IC50 (JAK1) | IC50 (JAK2; [1]) | IC50 (JAK2; [2])
1 | CS(=O)(=O)c1ccc(Nc2nn([C@H]3COCC[C@@H]3C#N)c3cc[nH]c(=O)c23)cc1 [Example 1-2, (3R,4S)-3-(3-((4-(methylsulfonyl)phenyl)amino)-4-oxo-4,5-dihydro-1H-pyrazolo[4,3-c]pyridin-1-yl)tetrahydro-2H-pyran-4-carbonitrile] | 0.05 nM | 0.35 nM | –
2 | N#C[C@H]1CCOC[C@@H]1n1nc(Nc2ccnc(F)c2)c2c(=O)[nH]ccc21 [Example 1-30, (3R,4S)-3-{3-[(2-fluoropyridin-4-yl)amino]-4-oxo-4,5-dihydro-1H-pyrazolo[4,3-c]pyridin-1-yl}tetrahydro-2H-pyran-4-carbonitrile] | 0.25 nM | 4.65 nM | –
3 | CC(C)(C)N1Cc2cc(Nc3nn([C@H]4COCC[C@@H]4C#N)c4cc[nH]c(=O)c34)ccc2S1(=O)=O [Example 1-5, (3R,4S)-3-(3-((2-(tert-butyl)-1,1-dioxido-2,3-dihydrobenzo[d]isothiazol-5-yl)amino)-4-oxo-4,5-dihydro-1H-pyrazolo[4,3-c]pyridin-1-yl)tetrahydro-2H-pyran-4-carbonitrile] | 0.05 nM | 0.15 nM | –
4 | N#C[C@H]1CCOC[C@@H]1n1nc(Nc2ccc3c(c2)CN(CC(F)(F)F)S3(=O)=O)c2c(=O)[nH]ccc21 [Example 1-62, (3R,4S)-3-(3-{[1,1-dioxido-2-(2,2,2-trifluoroethyl)-2,3-dihydro-1,2-benzothiazol-5-yl]amino}-4-oxo-4,5-dihydro-1H-pyrazolo[4,3-c]pyridin-1-yl)tetrahydro-2H-pyran-4-carbonitrile] | 0.05 nM | 0.29 nM | –
5 | CC1(C)CN(S(=O)(=O)c2ccc(Nc3nn([C@H]4COCC[C@@H]4C#N)c4cc[nH]c(=O)c34)cc2)CCO1 [Example 1-71, (3R,4S)-3-[3-({4-[(2,2-dimethylmorpholin-4-yl)sulfonyl]phenyl}amino)-4-oxo-4,5-dihydro-1H-pyrazolo[4,3-c]pyridin-1-yl]tetrahydro-2H-pyran-4-carbonitrile] | 0.22 nM | 0.7 nM | –
6 | CC(C)(C)S(=O)(=O)c1ccc(Nc2nn([C@H]3COCC[C@@H]3C#N)c3cc[nH]c(=O)c23)cc1 [Example 1-13] | 0.08 nM | 0.21 nM | –
7 | CC(C)(C)S(=O)(=O)c1ccc(Nc2nn([C@@H]3COCCC[C@@H]3C#N)c3cc[nH]c(=O)c23)cc1 (single isomer, unassigned) [Example 1-25, (3S,4S or 3R,4R)-3-(3-{[4-(tert-butylsulfonyl)phenyl]amino}-4-oxo-4,5-dihydro-1H-pyrazolo[4,3-c]pyridin-1-yl)oxepane-4-carbonitrile] | 2.27 nM | – | 3.43 nM
8 | CN(C(C)(C)C)S(=O)(=O)c1ccc(Nc2nn([C@H]3COCC[C@@H]3C#N)c3cc[nH]c(=O)c23)cc1 [Example 1-12, N-(tert-butyl)-4-((1-((3R,4S)-4-cyanotetrahydro-2H-pyran-3-yl)-4-oxo-4,5-dihydro-1H-pyrazolo[4,3-c]pyridin-3-yl)amino)-N-methylbenzenesulfonamide] | 0.1 nM | 0.3 nM | –
9 | CN1CCN(C(c2ccc(Nc3nn([C@H]4COCC[C@@H]4C#N)c4cc[nH]c(=O)c34)cc2)C(F)(F)F)CC1 (single isomer, unassigned) [Example 1-36, (3R,4S)-3-[4-oxo-3-({4-[(1R or 1S)-2,2,2-trifluoro-1-(4-methylpiperazin-1-yl)ethyl]phenyl}amino)-4,5-dihydro-1H-pyrazolo[4,3-c]pyridin-1-yl]tetrahydro-2H-pyran-4-carbonitrile] | 0.24 nM | – | 0.27 nM
10 | COC(=N)c1cc(Nc2nn([C@H]3COCC[C@@H]3C#N)c3cc[nH]c(=O)c23)ccc1O [Example 1-16, methyl 5-({1-[(3R,4S)-4-cyanotetrahydro-2H-pyran-3-yl]-4-oxo-4,5-dihydro-1H-pyrazolo[4,3-c]pyridin-3-yl}amino)-2-hydroxybenzenecarboximidoate] | 0.36 nM | 5.04 nM | –

Continued, values first:

Row | IC50 (JAK1) | IC50 (JAK2; [1]) | IC50 (JAK2; [2]) | SMILES
11 | 0.1 nM | 0.2 nM | – | CC1(C)CCCN1S(=O)(=O)c1ccc(Nc2nn([C@H]3COCC[C@@H]3C#N)c3cc[nH]c(=O)c23)cc1 [Example 1-72, (3R,4S)-3-[3-({4-[(2,2-dimethylpyrrolidin-1-yl)sulfonyl]phenyl}amino)-4-oxo-4,5-dihydro-1H-pyrazolo[4,3-c]pyridin-1-yl]tetrahydro-2H-pyran-4-carbonitrile]
12 | 0.24 nM | 0.82 nM | – | C[C@H]1CN(S(=O)(=O)c2ccc(Nc3nn([C@H]4COCC[C@@H]4C#N)c4cc[nH]c(=O)c34)cc2)C[C@H](C)O1 (stereo in doubt) [Example 1-76, (3R,4S)-3-{3-[(4-{[(trans)-2,6-dimethylmorpholin-4-yl]sulfonyl}phenyl)amino]-4-oxo-4,5-dihydro-1H-pyrazolo[4,3-c]pyridin-1-yl}tetrahydro-2H-pyran-4-carbonitrile]
13 | 0.07 nM | – | 0.15 nM | N#C[C@H]1CCOCC1n1nc(Nc2ccc(C(O)(c3ccccn3)C(F)(F)F)cc2)c2c(=O)[nH]ccc21 (single isomer, unassigned) [Example 1-96, (3R,4S)-3-(4-oxo-3-((4-((S or R)-2,2,2-trifluoro-1-hydroxy-1-(pyridin-2-yl)ethyl)phenyl)amino)-4,5-dihydro-1H-pyrazolo[4,3-c]pyridin-1-yl)tetrahydro-2H-pyran-4-carbonitrile]
14 | 0.15 nM | – | 0.23 nM | CC1CCCN1C(c1ccc(Nc2nn([C@H]3COCC[C@@H]3C#N)c3cc[nH]c(=O)c23)cc1)C(F)(F)F (single isomer, unassigned) [Example 1-86, (3R,4S)-3-{4-oxo-3-[(4-{(1R or 1S)-2,2,2-trifluoro-1-[(2S or 2R)-2-methylpyrrolidin-1-yl]ethyl}phenyl)amino]-4,5-dihydro-1H-pyrazolo[4,3-c]pyridin-1-yl}tetrahydro-2H-pyran-4-carbonitrile]
15 | 0.07 nM | – | 0.15 nM | N#C[C@H]1CCOC[C@@H]1n1nc(Nc2ccc(C(NC3CC3)C(F)(F)F)cc2)c2c(=O)[nH]ccc21 (single isomer, unassigned) [Example 1-80, (3R,4S)-3-[3-({4-[(1S or 1R)-1-(cyclopropylamino)-2,2,2-trifluoroethyl]phenyl}amino)-4-oxo-4,5-dihydro-1H-pyrazolo[4,3-c]pyridin-1-yl]tetrahydro-2H-pyran-4-carbonitrile]
